Measurements reported in US5846720A, “Methods of determining chemicals that modulate expression of genes associated with cardiovascular disease” (Oncogene Science, Inc., priority 1996, dated 1998).
Entries after “also recorded” stand apart in the source; their conditions may differ. Where two headings read alike, the source gives them in different places.

Tests used:
beta-actin mRNA = test: Northern blot of actin mRNA (control); format: cell-based, human; details: U5637 cells
Experimental: Total cellular RNA was isolated from cells following incubation with chemicals as described above and electrophoresed in a 1% Agarose Formaldehyde gel. The RNA was transferred to Duralon-UV nylon filters (Stratagene, La Jolla, Calif.) using the manufacturer's recommended protocol. The filters were prehybridized for 4 hours (prehybridizing solution=5× SSC, 50 mM sodium pyrophosphate, 10× Denhardt's solution, 10% dextran sulfate, 7% SDS and 250 μg/ml denatured ssDNA) and then hybridized in the same solution for 16 hours at 65° C. in the presence of specific probes. The G-CSF probe was a 0.6 kb AflII to Xhol fragment which contained most of exon 5 of the human G-CSF gene. The β-actin (Oncor, Gaithersburg, Md.) probe was used as a control probe to normalize for the total amount of RNA. The probes were labeled with alpha-32P dCTP using a random primed DNA labeling kit (Amersham, Arlington, Ill.). Following hybridization, filters were washed three times at room temperature with 1× SSC, 0.13% SDS and three times at 65° C. with 0.2× SSC, 0.1% SDS. Filters were first probed with the G-CSF specific probe and then reprobed with β-actin-probe. […] Bands were excised and counted in a liquid scintillation counter (LKB, Gaithersburg, Md.), and counts obtained with the G-CSF specific probe were normalized relative to the counts obtained with the β-Actin specific probe. […]

G-CSF mRNA [1] = test: Northern blot of endogenous G-CSF mRNA; format: cell-based, human; details: U5637 cells, relative to DMSO
Experimental: Total cellular RNA was isolated from cells following incubation with chemicals as described above and electrophoresed in a 1% Agarose Formaldehyde gel. The RNA was transferred to Duralon-UV nylon filters (Stratagene, La Jolla, Calif.) using the manufacturer's recommended protocol. The filters were prehybridized for 4 hours (prehybridizing solution=5× SSC, 50 mM sodium pyrophosphate, 10× Denhardt's solution, 10% dextran sulfate, 7% SDS and 250 μg/ml denatured ssDNA) and then hybridized in the same solution for 16 hours at 65° C. in the presence of specific probes. The G-CSF probe was a 0.6 kb AflII to Xhol fragment which contained most of exon 5 of the human G-CSF gene. The β-actin (Oncor, Gaithersburg, Md.) probe was used as a control probe to normalize for the total amount of RNA. The probes were labeled with alpha-32P dCTP using a random primed DNA labeling kit (Amersham, Arlington, Ill.). Following hybridization, filters were washed three times at room temperature with 1× SSC, 0.13% SDS and three times at 65° C. with 0.2× SSC, 0.1% SDS. Filters were first probed with the G-CSF specific probe and then reprobed with β-actin-probe. Exposure to x-ray film was performed overnight. Bands were excised and counted in a liquid scintillation counter (LKB, Gaithersburg, Md.), and counts obtained with the G-CSF specific probe were normalized relative to the counts obtained with the β-Actin specific probe.
Also shown are the effects of the solvent, DMSO, used to dissolve the chemicals and a proteinaceous positive regulator, interferon-gamma.

G-CSF promoter [2] = test: G-CSF promoter/luciferase reporter assay (high-throughput screen I), G21 cells; details: for activation of the G-CSF promoter (dose response): G21 cells; for EC50: read-out: ED50 (concentration of chemical resulting in 50% maximal stimulation), G-CSF reporter cell line G21, range over the three chemicals; for GCSF fold induction relative to solvent control: transcriptional activators, Table 2, 6 h incubation; for G-CSF promoter induction: G21, 7 hours, serum-free
G-CSF mRNA [3] = test: S1 nuclease protection, G-CSF mRNA; format: cell-based, human; details: for amount of G-CSF mRNA (S1 nuclease protection): 5637 cells, 18 hours
Experimental: (§1) S1 Nuclease protection assays were carried out as described in reference 118.
(§2) To further confirm, that compounds that had been identified in a luciferase expression assay using a G-CSF specific reporter cell line would be active in inducing transcription of the endogenous G-CSF gene, cells from the parental cell line 5637 used to construct the reporter cell line were incubated with cycloheximide (25 ug/ml), DMSO (0.5%,solvent control) and low, medium and high concentrations of the compounds 542 (10, 50, 250 μM),1255 (20, 100, 500 uM), 1793(0.25, 1.2, 6.25 μM) and 1904 (20, 100 uM) for 18 hours. RNA was extracted and the concentration of G-CSF, GM-CSF and gamma-actin mRNA was determined by the S1 protection method as described in above. The positions of G-CSF GM-CSF and gamma-actin specific protected fragments are indicated (G, GM, A) at the left side of the gel (FIG. 37).

[4] = tested on: 5637 bladder carcinoma cells; test: G-CSF secretion, two-antibody sandwich immunoassay; format: cell-based, human; details: 48 hours, serum-containing media
Experimental: Supernatants from 5637 bladder carcinoma cells incubated with chemicals registering as positives in the G-CSF promoter/luciferase high throughput assay were assayed for secreted G-CSF protein using the two-antibody sandwich immunoassay (83). The G-CSF Assay kit manufactured by Oncogene Science, Inc. was used and the manufacturer's instructions were followed.
The levels of G-CSF in the cell supernatants were determined by a sandwich-antibody assay as described in above (FIG. 42).

GM-CSF mRNA = test: S1 nuclease protection, GM-CSF mRNA; format: cell-based, human; details: 5637 cells, 18 hours
Experimental: as §1, §2

hGH promoter = test: hGH promoter/luciferase reporter assay (high-throughput screen I), 532 cells; format: cell-based, rat; details: transcriptional activators, Table 2; 6 h incubation
Description: 6. a GC rat pituitary cell line, transfected with the growth hormone reporter plasmid, designated 532, deposited under ATCC Accession No. CRL 10663.

MMTV promoter = test: MMTV promoter/luciferase reporter assay (high-throughput screen I, control for specificity), M10 cells; format: cell-based, mouse; details: transcriptional activators, Table 2; original high-throughput assay; 6 h incubation
G-CSF promoter [5] = test: G-CSF promoter/luciferase induction by known inducers, clone G1002; format: cell-based, human; details: for fold induction at 0.02 µg/mL: Homo sapiens, read-out: G-CSF promoter induction
Experimental: U5637 bladder carcinoma cells were transfected with pGVU150 (FIG. 21) or pGVU140 plus pTKNeo3 either by electroporation using a BRL (Gaithersburg, Md.) Cellporator electroporation device or by lipofection using BRL lipofectin and following the manufacturer's protocol. Clones were analyzed for luciferase expression and those testing positive expanded further and frozen in liquid nitrogen. Further analysis of 6 clones (G1002, G2005, G2071, G2085, G3014, G3031) included Southern blotting, reaction to known inducers, satisfactory attachment to microtiter plates and acceptable standard deviation in multiple luciferase expression assays. Clone G1002 was selected for use in the high throughput screen.
Cell clones with correctly integrated promoter/reporter constructs were analyzed for correct reaction to known transcriptional inducers. […] Both TNF-alpha and PMA induction levels of clone G1002 were influenced by the presence or absence of epidermal growth factor (EGF). […] The 9.3 fold induction by PMA in the absence of EGF was reduced to 5.6 fold by including EGF in the serum-free incubation mixture. Similar differences were observed, when EGF was substituted by 10% fetal calf serum.

GM-CSF promoter = test: GM-CSF promoter/luciferase induction by known inducers, GM1073, GM1088, GM1105; format: cell-based, human
Experimental: 6 clones generated by electroporation of U5637 cells with pGMLL103 NEO3 (FIG. 26) were subjected to further analysis as described above for G-CSF: --GM1073 (10 μg; circular); GM1081, GM1088 and GM1090 (5 μg; linear); and GM1098 and GM1105 (10 μg; linear). Clone GM1073 was selected for use in the high throughput screen.
Promoter induction experiments were also conducted with the GM-CSF reporter cell lines GM1073, GM1088 and GM1105, which were all shown to contain correctly inserted constructs (see above). […] Luciferase expression of clones GM1088 and GM1105 was induced by PMA 2.8 fold and 2 fold, respectively, while TNF-alpha induced both clones 2 fold. All three M-CSF clones responded to a 16-hour incubation with 2,000 units/ml Interferon-gamma by a 20-fold increase of luciferase expression from the M-CSF promoter.

[6] = in vivo; cited from earlier work
[7] = cited from earlier work; for decrease in serum cholesterol levels: compared with HMGCoA reductase inhibitors like lovastatin
[8] = G1002, 7 hours, serum-free, absence of EGF

CN(C)c1ccc(C(=C2C=CC(=[N+](C)C)C=C2)c2ccc([N+](C)(C)C)cc2)cc1 [#670]
effect on actin mRNA (Northern blot) (beta-actin mRNA): not of actin mRNA
effect on endogenous G-CSF mRNA (Northern blot) (G-CSF mRNA [1]): increased G-CSF mRNA production; also recorded: stimulated production of G-CSF mRNA
activation of the G-CSF promoter (dose response) (G-CSF promoter [2]): specifically activated the G-CSF promoter
EC50 (G-CSF promoter [2]): 5 to 70 µM

Clc1cc(Cl)cc(Br)c1 [#1255]
effect on actin mRNA (Northern blot) (beta-actin mRNA): not of actin mRNA
effect on endogenous G-CSF mRNA (Northern blot) (G-CSF mRNA [1]): increased G-CSF mRNA production; also recorded: stimulated production of G-CSF mRNA
amount of G-CSF mRNA (S1 nuclease protection) (G-CSF mRNA [3]): increased mRNA production

CN(C)c1ccc(C(=C2C=CC(=[N+](C)C)C=C2)c2ccc(N(C)C)cc2)cc1 [#1780]
G-CSF secretion [4]: increased G-CSF secretion
levels of endogenous G-CSF mRNA (G-CSF mRNA [3]; method not stated at the place): stimulate levels of endogenous G-CSF mRNA
scored as positive in repeat assays (G-CSF) (G-CSF promoter [2]; 48 independent luciferase assays, same day): scored as positives in every single one of these assays
activation of the G-CSF promoter (dose response) (G-CSF promoter [2]): specifically activated the G-CSF promoter
EC50 (G-CSF promoter [2]): 5 to 70 µM

CN(C)C(=S)SCC#N [#1793]
amount of GM-CSF mRNA (S1 nuclease protection) (GM-CSF mRNA): increased the amount of GM-CSF mRNA
amount of G-CSF mRNA (S1 nuclease protection) (G-CSF mRNA [3]): increased mRNA production

Nc1c2ccccc2nc2ccccc12 [#1904]
amount of G-CSF mRNA (S1 nuclease protection) (G-CSF mRNA [3]): increased mRNA production

CC(=O)N(C)c1ccc(N)cc1 [Chemical #1374, 4'-Amino-N-methyl-acetanilide]
hGH fold induction relative to solvent control (hGH promoter): 0.05 fold
MMTV fold induction relative to solvent control (MMTV promoter): 1.05 fold
GCSF fold induction relative to solvent control (G-CSF promoter [2]): 11.03 fold

CN(C)c1ccc(C(=C2C=CC(=[N+](C)C)C=C2)c2ccc(N(C)C)cc2)cc1 [Chemical #1780, Crystal Violet]
hGH fold induction relative to solvent control (hGH promoter): 0.38 fold
MMTV fold induction relative to solvent control (MMTV promoter): 1.15 fold
GCSF fold induction relative to solvent control (G-CSF promoter [2]): 20.39 fold

O=NN(O)c1ccccc1 [Chemical #1783, Cupferron]
hGH fold induction relative to solvent control (hGH promoter): 0.32 fold
MMTV fold induction relative to solvent control (MMTV promoter): 0.89 fold
GCSF fold induction relative to solvent control (G-CSF promoter [2]): 6.55 fold

CCCCCCCCCCCCCC(=O)O[C@@H]1[C@@H](C)[C@@]2(O)[C@@H](C=C(CO)C[C@]3(O)C(=O)C(C)=C[C@@H]23)[C@@H]2C(C)(C)[C@]12OC(C)=O [PMA, phorbol-myristate-acetate, reference compound]
G-CSF promoter induction (G-CSF promoter [5]; [8]): 9.3 fold
fold induction at 0.02 µg/mL (G-CSF promoter [5]; 7 h): 5.6
fold induction at 0.02 µg/mL (G-CSF promoter [5]; 10.5 h): 4.4
GM-CSF promoter induction (GM-CSF promoter; GM1073, serum-free media): 7.5 fold
fold induction at 0.02 µg/mL (GM-CSF promoter; Homo sapiens, GM1073, 20 ng/ml, 10.5 hours, serum-containing media): 3.4
GM-CSF promoter induction (GM-CSF promoter; clone GM1088): 2.8 fold
GM-CSF promoter induction (GM-CSF promoter; clone GM1105): 2 fold
G-CSF promoter induction (G-CSF promoter [2]; absence of EGF): 34.6 fold
G-CSF promoter induction (G-CSF promoter [2]; presence of EGF): 24.6 fold

CC[C@H](C)C(=O)O[C@H]1C[C@@H](C)C=C2C=C[C@H](C)[C@H](CC[C@@H]3C[C@@H](O)CC(=O)O3)[C@H]21 [lovastatin]
most frequently reported side effects [6]: Gastrointestinal disturbances, including flatulence, diarrhea, constipation and nausea

GM-CSF: colony-stimulating factor GM-CSF
decrease in serum cholesterol levels [7]: profound decreases in serum cholesterol levels
average decrease in serum cholesterol ([7]; in vivo): 37%

Interleukin-1 beta: Interleukin-1 beta, known transcriptional inducer
G-CSF promoter induction (G-CSF promoter [5]; G1002, 0.5 ng/ml, 10.5 hours, serum-containing media): 2.6 fold

TNF-alpha
G-CSF secretion [4]: increased G-CSF secretion
G-CSF promoter induction (G-CSF promoter [5]; G1002, 8.3 ng/ml, 10.5 hours, serum-containing media): 2 fold
G-CSF promoter induction (G-CSF promoter [5]; G1002, 7 hours, serum-free defined media with 20 ng/ml EGF): 3 fold
G-CSF promoter induction (G-CSF promoter [5]; [8]): 4 fold
GM-CSF promoter induction (GM-CSF promoter; clone GM1088): 2 fold
GM-CSF promoter induction (GM-CSF promoter; clone GM1105): 2 fold
G-CSF promoter induction (G-CSF promoter [2]; absence of EGF): 2.1 fold
G-CSF promoter induction (G-CSF promoter [2]; presence of EGF): 2.8 fold

B1: CSF-1: colony-stimulating factor-1 (protein, UniProt P09603 33-554, looked up)
Macrophage colony-stimulating …: EEVSEYCSHMIGSGHLQSLQRLIDSQMETSCQITFEFVDQEQLKDPVCYLKKAFLLVQDIMEDTMRFRDNTPNAIAIVQLQELSLRLKSCFTKDYEEHDKACVRTFYETPLQLLEKVKNVFNETKNLLDKDWNIFSKNCNNSFAECSSQDVVTKPDCNCLYPKAIPSSDPASVSPHQPLAPSMAPVAGLTWEDSEGTEGSSLLPGEQPLHTVDPGSAKQRPPRSTCQSFEPPETPVVKDSTIGGSPQPRPSVGAFNPGMEDILDSAMGTNWVPEEASGEASEIPVPQGTELSPSRPGGGSMQTEPARPSNFLSASSPLPASAKGQQPADVTGTALPRVGPVRPTGQDWNHTPQKTDHPSALLRDPPEPGSPRISSLRPQGLSNPSTLSAQPQLSRSHSSGSVLPLGELEGRRSTRDRRSPAEPEGGPASEGAARPLPRFNSVPLTDTGHERQSEGSFSPQLQESVFHLLVPSVILVLLAVGGLLFYRWRRRSHQEPQRADSPLEQPEGSPLTQDDRQVELPV
decrease in serum cholesterol levels [7]: profound decreases in serum cholesterol levels
